{
  "source": "patent US7390875B2",
  "about": "“Method for binding, in solution, a peptide and a lipophilic vector and uses thereof” (Institut Pasteur de Lille, priority 2000, dated 2008)",
  "test_system": "class II molecules of the MHC at the surface of COLO 205 cells",
  "experiment": "Quantification of the expression of class II MHC molecules at the surface of COLO 205 cells after incubation with lipopeptides (flow cytometry)",
  "type": "cell-based, human",
  "conditions": "Table IIIb; for Ratio (mean fluorescence treated vs non-treated cells): L243 antibody / ALEXA 488",
  "description": "2) Protocol for Quantification of the Expression of Molecules of Class II of the Major Histocompatibility Complex (MHC) at the Surface of the Cells.\nThe COLO 205 cells (human cell line obtained from a carcinoma of the colon) come from the ATCC (American Type Culture Collection) cell bank. They are cultivated in an RPMI 1640 medium (Gibco BRL, Courbevoie, France) with 10% of fetal calf serum (FCS) and 5 mM of sodium pyruvate, and incubated at 37° C. in the presence of 5% of CO2. […]\nThe surface expression of the class II molecules of the MHC is analysed using flow cytometry with a Coulter EPICS II cytometer, at the rate of 10,000 events per sample. The fluorescence intensity observed is directly proportional to the quantity of class II molecules of the MHC present on the surface of the cells. The mean fluorescence value observed for the non-treated cells and for the treated cells (“Mean” column in Table III) makes it possible to calculate a ratio between the mean fluorescence value of the non-treated cells and the mean fluorescence value for the treated cells (“Ratio” column in Table III). The control consists in incubating the cells in the absence of lipopeptides.",
  "note": "Starred links: 1 amine or outer side, 2 acyl side, 3 side chain; linkers in the order of their positions; H or OH if unused. Hydrazinoacetyl = O=C(CNN[*:1])[*:2]",
  "data": [
    {"substance": "L-MU-IFNγc: presumably peptide Mu-IFNγ c (SEQ ID NO: 12) coupled with palmitoyl vector (IIIa); synthesis not described (H-K(Hydrazinoacetyl)AKFEVNNPQVQRQAFNELIRVVHQLLPESSLRKRKRSR-NH2; also: palmitoyl vector (IIIa) coupled by hydrazone bond)", "values": [
      {"measurement": "Ratio (mean fluorescence treated vs non-treated cells)", "setting": "5 μM lipopeptide", "result": 2.14},
      {"measurement": "Mean (mean fluorescence value)", "setting": "5 μM lipopeptide, L243 antibody revealed by second antibody coupled to ALEXA 488, control mean 0.607", "result": 1.3},
      {"measurement": "Ratio (mean fluorescence treated vs non-treated cells)", "setting": "10 μM lipopeptide", "result": 2.83},
      {"measurement": "Mean (mean fluorescence value)", "setting": "10 μM lipopeptide, L243 antibody / ALEXA 488, control mean 0.607", "result": 1.72},
      {"measurement": "Ratio (mean fluorescence treated vs non-treated cells)", "setting": "35 μM lipopeptide", "result": 24.8},
      {"measurement": "Mean (mean fluorescence value)", "setting": "35 μM lipopeptide, L243 antibody / ALEXA 488, control mean 0.607", "result": 15.1}
    ]}
  ]
}
